In patent publication US20070049564A1 (Wyeth, priority 2005, published 2007):
Converted amounts (≈) assume the structure as drawn. Where two headings read alike, the source gives them in different places.

How the values were obtained:
[1] = test system: Staph.; test: Range of MIC for Staph. strains, including MRSA; settings: Staphylococcus aureus, MRSA
[2] = test system: c. albicans GC 3066; test: MIC, broth microdilution
[3] = test system: S. aureus GC 1079; test: MIC, broth microdilution; settings: Staphylococcus aureus, GC1079, S. aureus GC 1079
[4] = test system: E. coli GC 2233; test: MIC, broth microdilution; settings: Escherichia coli, GC2233, E. coli GC 2233
[5] = test system: E. coli GC 2231; test: MIC, broth microdilution; settings: Escherichia coli, GC2231, E. coli GC 2231
[6] = test system: S. aureus GC 4536; test: MIC, broth microdilution; settings: Staphylococcus aureus, GC4536, S. aureus GC 4536
[7] = test system: E. coli GC 2270; test: MIC, broth microdilution; settings: Escherichia coli, GC2270, E. coli GC 2270
[8] = test system: E. coli GC 1073; test: MIC, broth microdilution; settings: Escherichia coli, GC1073, E. coli GC 1073
[9] = test system: E. faecium GC 2243; test: MIC, broth microdilution; settings: Enterococcus faecium, GC2243, E. faecium GC 2243
[10] = test system: S. typhimurium GC 2172; test: MIC, broth microdilution; settings: Salmonella enterica, TYPHIMURIUM, S. typhimurium GC 2172
[11] = test system: S. aureus GC 6466; test: MIC, broth microdilution; settings: Staphylococcus aureus, GC6466, S. aureus GC 6466
[12] = test system: E. coli GC 6465; test: MIC, broth microdilution; settings: Escherichia coli, GC6465, E. coli GC 6465
[13] = test system: E. coli GC 4560; test: MIC, broth microdilution; settings: Escherichia coli, GC4560, E. coli GC 4560
[14] = test system: S. aureus GC 6467; test: MIC, broth microdilution; settings: Staphylococcus aureus, GC6467, S. aureus GC 6467
[15] = test system: E. faecium GC 4556; test: MIC, broth microdilution; settings: Enterococcus faecium, GC4556, E. faecium GC 4556
[16] = test system: S. aureus GC 2216; test: MIC, broth microdilution; settings: Staphylococcus aureus, GC2216, S. aureus GC 2216
[17] = test system: E. faecalis GC 2242; test: MIC, broth microdilution; settings: Enterococcus faecalis, GC2242, E. faecalis GC 2242
[18] = test system: E. coli GC 2235; test: MIC, broth microdilution; settings: Escherichia coli, GC2235, E. coli GC 2235
[19] = test system: E. coli; test: Range of MIC for E. coli strains; settings: Escherichia coli
[20] = test system: S. aureus GC 6469; test: MIC, broth microdilution; settings: Staphylococcus aureus, GC6469, S. aureus GC 6469
[21] = read-out: Range of MIC, Staph (Mouse Serum)
[22] = read-out: Range of MIC, Staph (Water)
[23] = read-out: Range of MIC, Staph. (mouse serum)
[24] = read-out: Range of MIC, Staph. (water)
[25] = c. albicans GC 3066, Water pre-incubation
[26] = 20 h, read-out: Range of MIC, E. coli (Mouse Serum)
[27] = read-out: Range of MIC, E. coli (mouse serum)

`CCCN(CC(=O)Nc1cc(N(C)C)c2c(c1O)C(=O)C1=C(O)[C@]3(O)C(=O)C(C(N)=O)=C(O)[C@@H](N(C)C)[C@@H]3C[C@@H]1C2)C(=O)OCOC(=O)c1ccc(F)cc1` [Example 8, ({[(2-{[(5aR,6aS,7S,10aS)-9-(aminocarbonyl)-4,7-bis(dimethylamino)-1,8,10a,11-tetrahydroxy-10,12-dioxo-5,5a,6,6a,7,10,10a,12-octahydrotetracen-2-yl]amino}-2-oxoethyl)(propyl)amino]carbonyl}oxy)methyl 4-fluorobenzoate] showed an MIC [1, 21] of 0.5 to 4 µg/mL (≈ 0.651 to 5.21 µM), an MIC [1, 22] of 1 to 8 µg/mL (≈ 1.3 to 10.4 µM) and an MIC [1, 23] of 0.5 to 4 µg/mL (≈ 0.651 to 5.21 µM). It also gave an MIC [1, 24] of 1 to 8 µg/mL (≈ 1.3 to 10.4 µM), an MIC ([2]; Candida albicans, GC3066) greater than 64 µg/mL and an MIC [2, 25] greater than 64 UG/ML. For the same compound, the MIC ([3]; Mouse Serum pre-incubation) was 2 µg/mL (≈ 2.6 µM), the MIC ([3]; Water pre-incubation) was 4 µg/mL (≈ 5.21 µM) and the MIC ([4]; Mouse Serum pre-incubation) was 1 µg/mL (≈ 1.3 µM). It also gave an MIC ([4]; Water pre-incubation) of 32 µg/mL (≈ 41.7 µM), an MIC ([5]; Mouse Serum pre-incubation) of 2 µg/mL (≈ 2.6 µM) and an MIC ([5]; Water pre-incubation) greater than 64 µg/mL. The MIC ([6]; Mouse Serum pre-incubation) was 0.5 µg/mL (≈ 0.651 µM), the MIC ([6]; Water pre-incubation) was 2 µg/mL (≈ 2.6 µM) and the MIC ([7]; Mouse Serum pre-incubation) was 1 µg/mL (≈ 1.3 µM). For the same compound, the MIC ([7]; Water pre-incubation) was 64 µg/mL (≈ 83.4 µM), the MIC ([8]; Mouse Serum pre-incubation) was 1 µg/mL (≈ 1.3 µM) and the MIC ([8]; Water pre-incubation) was 32 µg/mL (≈ 41.7 µM). For the same compound, the MIC ([9]; Mouse Serum pre-incubation) was 0.25 µg/mL (≈ 0.326 µM), the MIC ([9]; Water pre-incubation) was 2 µg/mL (≈ 2.6 µM) and the MIC ([10]; Mouse Serum pre-incubation) was 8 µg/mL (≈ 10.4 µM). For the same compound, the MIC ([10]; Water pre-incubation) was greater than 64 µg/mL, the MIC ([11]; Mouse Serum pre-incubation) was 0.5 µg/mL (≈ 0.651 µM) and the MIC ([11]; Water pre-incubation) was 1 µg/mL (≈ 1.3 µM). For the same compound, the MIC ([12]; Mouse Serum pre-incubation) was 8 µg/mL (≈ 10.4 µM), the MIC ([12]; Water pre-incubation) was greater than 64 µg/mL and the MIC ([13]; Mouse Serum pre-incubation) was 0.5 µg/mL (≈ 0.651 µM). It also gave an MIC ([13]; Water pre-incubation) of 4 µg/mL (≈ 5.21 µM), an MIC ([14]; Mouse Serum pre-incubation) of 4 µg/mL (≈ 5.21 µM) and an MIC ([14]; Water pre-incubation) of 8 µg/mL (≈ 10.4 µM). It also gave an MIC ([15]; Mouse Serum pre-incubation) of 1 µg/mL (≈ 1.3 µM), an MIC ([15]; Water pre-incubation) of 4 µg/mL (≈ 5.21 µM) and an MIC ([16]; Mouse Serum pre-incubation) of 0.5 µg/mL (≈ 0.651 µM). The MIC ([16]; Water pre-incubation) was 4 µg/mL (≈ 5.21 µM), the MIC ([17]; Mouse Serum pre-incubation) was 1 µg/mL (≈ 1.3 µM) and the MIC ([17]; Water pre-incubation) was 4 µg/mL (≈ 5.21 µM). It also gave an MIC ([18]; Mouse Serum pre-incubation) of 1 µg/mL (≈ 1.3 µM), an MIC ([18]; Water pre-incubation) of 16 µg/mL (≈ 20.8 µM) and an MIC [19, 26] of 1 to 2 µg/mL (≈ 1.3 to 2.6 µM). For the same compound, the MIC [19, 27] was 1 to 2 µg/mL (≈ 1.3 to 2.6 µM), the MIC ([20]; Mouse Serum pre-incubation) was 2 µg/mL (≈ 2.6 µM) and the MIC ([20]; Water pre-incubation) was 8 µg/mL (≈ 10.4 µM).
Compound `CCCN(CC(=O)Nc1cc(N(C)C)c2c(c1O)C(=O)C1=C(O)[C@]3(O)C(=O)C(C(N)=O)=C(O)[C@@H](N(C)C)[C@@H]3C[C@@H]1C2)C(=O)OCOC(=O)C(C)(C)C` [Example 9, ({[(2-{[(5aR,6aS,7S,10aS)-9-(aminocarbonyl)-4,7-bis(dimethylamino)-1,8,10a,11-tetrahydroxy-10,12-dioxo-5,5a,6,6a,7,10,10a,12-octahydrotetracen-2-yl]amino}-2-oxoethyl)(propyl)amino]carbonyl}oxy)methyl pivalate] has an MIC [1, 21] of 0.06 to 2 µg/mL (≈ 0.0822 to 2.74 µM), an MIC [1, 22] of 0.12 to 2 µg/mL (≈ 0.164 to 2.74 µM) and an MIC [1, 23] of 0.06 to 1 µg/mL (≈ 0.0822 to 1.37 µM). It also gave an MIC [1, 24] of 0.12 to 2 µg/mL (≈ 0.164 to 2.74 µM), an MIC ([2]; Candida albicans, GC3066) greater than 64 µg/mL and an MIC [2, 25] greater than 64 UG/ML. For the same compound, the MIC ([3]; Mouse Serum pre-incubation) was 2 µg/mL (≈ 2.74 µM), the MIC ([3]; Water pre-incubation) was 1 µg/mL (≈ 1.37 µM) and the MIC ([4]; Mouse Serum pre-incubation) was 0.5 µg/mL (≈ 0.685 µM). It also gave an MIC ([4]; Water pre-incubation) of 4 µg/mL (≈ 5.48 µM), an MIC ([5]; Mouse Serum pre-incubation) of 2 µg/mL (≈ 2.74 µM) and an MIC ([5]; Water pre-incubation) of 64 µg/mL (≈ 87.7 µM). For the same compound, the MIC ([6]; Mouse Serum pre-incubation) was 0.5 µg/mL (≈ 0.685 µM), the MIC ([6]; Water pre-incubation) was 0.5 µg/mL (≈ 0.685 µM) and the MIC ([7]; Mouse Serum pre-incubation) was 0.5 µg/mL (≈ 0.685 µM). The MIC ([7]; Water pre-incubation) was 4 µg/mL (≈ 5.48 µM), the MIC ([8]; Mouse Serum pre-incubation) was 1 µg/mL (≈ 1.37 µM) and the MIC ([8]; Water pre-incubation) was 8 µg/mL (≈ 11 µM). For the same compound, the MIC ([9]; Mouse Serum pre-incubation) was 0.25 µg/mL (≈ 0.343 µM), the MIC ([9]; Water pre-incubation) was 0.5 µg/mL (≈ 0.685 µM) and the MIC ([10]; Mouse Serum pre-incubation) was 8 µg/mL (≈ 11 µM). For the same compound, the MIC ([10]; Water pre-incubation) was greater than 64 µg/mL, the MIC ([11]; Mouse Serum pre-incubation) was 0.12 µg/mL (≈ 0.164 µM) and the MIC ([11]; Water pre-incubation) was 0.12 µg/mL (≈ 0.164 µM). It also gave an MIC ([12]; Mouse Serum pre-incubation) of 4 µg/mL (≈ 5.48 µM), an MIC ([12]; Water pre-incubation) greater than 64 µg/mL and an MIC ([13]; Mouse Serum pre-incubation) of 0.25 µg/mL (≈ 0.343 µM). The MIC ([13]; Water pre-incubation) was 1 µg/mL (≈ 1.37 µM), the MIC ([14]; Mouse Serum pre-incubation) was 1 µg/mL (≈ 1.37 µM) and the MIC ([14]; Water pre-incubation) was 2 µg/mL (≈ 2.74 µM). The MIC ([15]; Mouse Serum pre-incubation) was 0.25 µg/mL (≈ 0.343 µM), the MIC ([15]; Water pre-incubation) was 0.5 µg/mL (≈ 0.685 µM) and the MIC ([16]; Mouse Serum pre-incubation) was 0.25 µg/mL (≈ 0.343 µM). The MIC ([16]; Water pre-incubation) was 0.5 µg/mL (≈ 0.685 µM), the MIC ([17]; Mouse Serum pre-incubation) was 0.5 µg/mL (≈ 0.685 µM) and the MIC ([17]; Water pre-incubation) was 1 µg/mL (≈ 1.37 µM). It also gave an MIC ([18]; Mouse Serum pre-incubation) of 0.5 µg/mL (≈ 0.685 µM), an MIC ([18]; Water pre-incubation) of 4 µg/mL (≈ 5.48 µM) and an MIC [19, 26] of 0.5 to 2 µg/mL (≈ 0.685 to 2.74 µM). The MIC ([19]; read-out: Range of MIC, E. coli (Water)) was 4 to 64 µg/mL (≈ 5.48 to 87.7 µM), the MIC [19, 27] was 0.5 to 2 µg/mL (≈ 0.685 to 2.74 µM) and the MIC ([19]; read-out: Range of MIC, E. coli (water)) was 4 to 64 µg/mL (≈ 5.48 to 87.7 µM). For the same compound, the MIC ([20]; Mouse Serum pre-incubation) was 1 µg/mL (≈ 1.37 µM) and the MIC ([20]; Water pre-incubation) was 2 µg/mL (≈ 2.74 µM).
